Results taken from patent US20240197761A1, “FUCOSYLATION AND IMMUNE MODULATION IN CANCER” (H. LEE MOFFITT CANCER CENTER AND RESEARCH INSTITUTE, INC., priority 2021, published 2024).

Columns and labels:
[1] = tested on: HLA-DRB1 in WM793 and 1205Lu cells; assay: Cell surface fucosylation and HLA-DRB1 (flow cytometry), HLA-DRB1 mRNA (qRT-PCR) and protein (IB) in melanoma cells; format: cell-based, human; details: 250 μM, 72 h
Source text: FIGS. 18A-18F show N-linked fucosylation of HLA-DRB1 at N48 regulates its cell surface localization and is required for tumor suppression and increased TIL abundance. (a) (upper) Amino acid sequence alignments showing conservation of predicted N- and O-linked fucosylation sites in human HLA-DRB1 (N48 and T129) and mouse H2EB1 (N46 and T147). Structural modeling of the HLA-DRB1:HLA-DM (lower left) and CD4:HLA-DRB1:TCR (lower right) complexes. Potential glycosylation sites, N48 and T129, of HLA-DR1 beta chain are shown as sticks. CD4 (cyan), HLA-DRB1 (yellow), antigen peptide (magenta), and TCR (green)(lower right). (b) HLA-DRB1 peptide fragment identified by nano-LC/MS to be fucosylated on N48, with predicted HexNAc(4)Hex(3)Fuc(1) glycan structure shown above. (c) Lectin pull down (LPD) and IB analyses of EV and V5-tagged wild-type HLA-DRB1 (WT)-, HLA-DRB1 N48G (N48G)-, and HLA-DRB1 T129A (T129A)-expressing WM793 cells. (d) DMSO- or fucosyltransferase inhibitor (FUTi)-treated WM793 cells immunofluorescently stained for endogenous HLA-DRB1, KDEL (ER marker), and DAPI (20× magnification). (e) Flow cytometric analysis for relative cell surface fucosylation (upper) and cell surface HLA-DRB1 (upper middle), qRT-PCR analysis of relative HLA-DRB1 mRNA levels (lower middle), and IB analysis of HLA-DRB1 protein levels (lower) in WM793 and 1205Lu cells treated with DMSO (D), 250 μM FUTi (i), or 250 μM L-fuc (LF). (f) Volumetric growth curves for shNT (non-targeting shRNA)+EV (control SW1 tumors)(upper left) or shEB1 tumors reconstituted with EV (upper right), EB1 WT (lower left), or EB1 N46G (lower right) in C3H/HeN mice. Control (grey) or L-fucose supplemented water (red, 100 mM; ▾=initiated supplementation) was provided ad libitum. The tumor growth curves are means±SEM from ≥7 mice per group. *=p<0.05.
FIGS. 19A and 19B show nano-LC/MS spectral identification of fucosylated HLA-DRB1 peptide; and the effects of modulating fucosylation on HLA-DRB1 localization, total protein, and mRNA levels (a) nano-LC/MS/MS spectra showing fucosylated HLA-DRB1 peptide (arrow). (b) Flow cytometric analysis for relative cell surface fucosylation (upper) and cell surface HLA-DRB1 levels (upper middle), qRT-PCR analysis of relative HLA-DRB1 mRNA levels (lower middle), and IB analysis of HLA-DRB1 protein levels (lower) in indicated melanoma cell lines treated with DMSO (D), 250 μM FUTi (i), or 250 μM L-fuc (LF). *=p<0.05.
HLA-DRB1, and PD-L1: Indicated cells were treated for 72 h with DMSO, 250 μM fucosyltransferase inhibitor (FUTi) (Millipore Sigma (St. Louis, MO)), or 250 μM of L-fucose (Biosynth (Oak Terrace, IL)). After 72 h, cells were stained with 0.1 μM PKH26 (Millipore Sigma (St. Louis, MO)) prior to fixation in 4% formaldehyde solution. The cells were stained with anti-HLA-DRB1 and fluorescein AAL, or anti-human or anti-mouse PD-L1 overnight. The following day the cells were washed 3 times prior to adding AlexaFluor 594 donkey anti-rabbit. Cells were washed 3 times and then subject to flow cytometric analyses using a FACSCalibur (BD Biosciences (San Jose, CA)). Samples were analyzed using FlowJo analysis software (BD Biosciences (San Jose, CA)). Median values of DRB1 and AAL were normalized to PKH26 values and statistical analysis was performed using GraphPad Prism.
Cells were lysed on ice in RIPA lysis buffer (25 mM Tris-HCl pH 7.6, 150 mM NaCl, 5 mM EDTA, 1% NP-40 or 1% Triton X-100, 1% sodium deoxycholate, 0.1% SDS in diH20+protease and phosphatase inhibitors (ThermoFisher Scientific (Waltham, MA)), briefly sonicated, pelleted, and the resulting lysates were normalized by protein concentration using DC assay (BioRad Laboratories, (Hercules, CA)). The indicated samples were subjected to (12%) SDS-PAGE and immunoblot analysis using the indicated antibodies. Immunoblot imaging and analysis was performed using either an Odyssey FC scanner and ImageStudio (LiCor Biosciences, Lincoln, NE) or film. […]

[2] = tested on: mouse bone marrow-derived myeloid progenitors; assay: Myeloid phenotype profiling (M-MDSC, PMN-MDSC, moDC) of bone marrow-derived myeloid progenitors; format: cell-based; details: ± GM/G-CSF, average values from 12 mice
Procedure: Next, we investigated the effect of L-fuc on NO production of bone marrow derived MDSCs (FIGS. 8A and 8B). We observed that L-fuc abrogated NO production in all cases. […] We also wanted to look at how L-fuc treatment effected the expression of immunosuppression genes (FIG. 9). We assessed the expression of key MDSC biology-related genes at 24 or 72 hours after in initial L-fuc treatment of the cells. Generally, we observed reductions in ARGI, PARP, and CHOP expression. In contrast we observed upregulation of STAT1. To further assess how L-fuc/fucosylation affects myeloid phenotype, we modulated fucosylation using DMSO (control), 2-fluoro-fucose (2FIF, fucosylation inhibitor), or L-fuc in mouse bone marrow-derived myeloid progenitors treated ±GM/G-CSF (FIG. 10). We profiled changes In M-MDSC vs. PMN-IMDSC, as well as moDC, as we observed immunostimulatory activity. […] Shown are the average values irom 12 mice. We also observed that L-fucose alters TLR profiles of dendritic cells (FIG. 11).

SMILES | HLA-DRB1 mRNA and protein levels [1] | cell surface HLA-DRB1 [1] | cell surface fucosylation [1] | myeloid phenotype (M-MDSC vs. PMN-MDSC, moDC) [2]
C[C@H](O)[C@@H](O)[C@@H](O)[C@H](O)C=O [L-fucose] | remained unchanged | increased | increased | enrichment of a monocytic phenotype, including increased moDCs
CC(=O)OC1O[C@@H](C)[C@@H](OC(C)=O)[C@@H](OC(C)=O)[C@@H]1F (stereo partly shown) [FUTi, 2F-peracteyl-fucose, reference compound] | remained unchanged | decreased | decreased | 
